Measurements taken from the supplement of paper PMC10307832.

What was measured:
Experiment in all cases: relative viability (nuclei count vs DMSO), 5 days (fraction); higher = more cells survive
[1] = tested on: NCI-H661
Summary of the method: (§1)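 Nuclei were stained with Hoechst during a one-step fixation (final 0.05% Triton X-100, 1% formaldehyde, 1 ug/ml Hoechst) carried out 5 days after dosing, then counted on 4× images. The cells, lung cancer lines in 1536-well plates, had been dosed by pin tool the day after seeding with one drug alone or a fixed anchor-drug dose plus five library-drug doses (not always all listed) in √10 steps. Relative viability is the nuclei count in treated wells divided by that in vehicle wells, and each value is the median of duplicate plates.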

[2] = tested on: 201T
Summary of the method: as §1

[3] = tested on: NCI-H1666
Summary of the method: as §1

[4] = tested on: BEN
Summary of the method: as §1

[5] = tested on: NCI-H2170
Summary of the method: as §1

[6] = tested on: NCI-H2009
Summary of the method: as §1

[7] = tested on: HCC-366
Summary of the method: as §1

[8] = tested on: CAL-12T
Summary of the method: as §1

[9] = tested on: EKVX
Summary of the method: as §1

[10] = tested on: NCI-H460
Summary of the method: as §1

[11] = tested on: COR-L 105
Summary of the method: as §1

[12] = tested on: NCI-H441
Summary of the method: as §1

[13] = tested on: NCI-H3122
Summary of the method: as §1

[14] = tested on: NCI-H727
Summary of the method: as §1

[15] = tested on: PC-14
Summary of the method: as §1

[16] = tested on: NCI-H1650
Summary of the method: as §1

[17] = tested on: SW 900
Summary of the method: as §1

[18] = tested on: LOU-NH91
Summary of the method: as §1

[19] = tested on: ABC-1
Summary of the method: as §1

[20] = tested on: LK-2
Summary of the method: as §1

[21] = tested on: HARA
Summary of the method: as §1

[22] = tested on: NCI-H1437
Summary of the method: as §1

## O=c1cc(N2CCOCC2)oc2c(-c3cccc4c3sc3ccccc34)cccc12 + COc1cccc2cc(-c3nc([C@H]4CC[C@H](C(=O)O)CC4)n4ncnc(N)c34)[nH]c12 [OSI-027] (partner 0.5 µM)
[1]; first compound 0.01 µM
  relative viability: 0.692
[1]; first compound 0.03162 µM
  relative viability: 0.738
[1]; first compound 0.1 µM
  relative viability: 0.772
[1]; first compound 0.3162 µM
  relative viability: 0.756
[1]; first compound 1 µM
  relative viability: 0.708
[2]; first compound 0.01 µM
  relative viability: 0.811
[2]; first compound 0.03162 µM
  relative viability: 0.832
[2]; first compound 0.1 µM
  relative viability: 0.715
[2]; first compound 0.3162 µM
  relative viability: 0.721
[2]; first compound 1 µM
  relative viability: 0.645
[3]; first compound 0.01 µM
  relative viability: 0.864
[3]; first compound 0.03162 µM
  relative viability: 0.922
[3]; first compound 0.1 µM
  relative viability: 0.847
[3]; first compound 0.3162 µM
  relative viability: 0.839
[3]; first compound 1 µM
  relative viability: 0.79
[4]; first compound 0.01 µM
  relative viability: 0.304
[4]; first compound 0.03162 µM
  relative viability: 0.309
[4]; first compound 0.1 µM
  relative viability: 0.302
[4]; first compound 0.3162 µM
  relative viability: 0.323
[4]; first compound 1 µM
  relative viability: 0.311
[5]; first compound 0.01 µM
  relative viability: 0.716
[5]; first compound 0.03162 µM
  relative viability: 0.845
[5]; first compound 0.1 µM
  relative viability: 0.716
[5]; first compound 0.3162 µM
  relative viability: 0.716
[5]; first compound 1 µM
  relative viability: 0.716
[6]; first compound 0.01 µM
  relative viability: 0.697
[6]; first compound 0.03162 µM
  relative viability: 0.791
[6]; first compound 0.1 µM
  relative viability: 0.664
[6]; first compound 0.3162 µM
  relative viability: 0.65
[6]; first compound 1 µM
  relative viability: 0.654
[7]; first compound 0.01 µM
  relative viability: 1
[7]; first compound 0.03162 µM
  relative viability: 1.38
[7]; first compound 0.1 µM
  relative viability: 1.12
[7]; first compound 0.3162 µM
  relative viability: 0.928
[7]; first compound 1 µM
  relative viability: 0.955
[8]; first compound 0.01 µM
  relative viability: 0.69
[8]; first compound 0.03162 µM
  relative viability: 0.71
[8]; first compound 0.1 µM
  relative viability: 0.599
[8]; first compound 0.3162 µM
  relative viability: 0.728
[8]; first compound 1 µM
  relative viability: 0.707
[9]; first compound 0.01 µM
  relative viability: 0.673
[9]; first compound 0.03162 µM
  relative viability: 0.715
[9]; first compound 0.1 µM
  relative viability: 0.659
[9]; first compound 0.3162 µM
  relative viability: 0.719
[9]; first compound 1 µM
  relative viability: 0.749
[10]; first compound 0.01 µM
  relative viability: 0.659
[10]; first compound 0.03162 µM
  relative viability: 0.717
[10]; first compound 0.1 µM
  relative viability: 0.683
[10]; first compound 0.3162 µM
  relative viability: 0.68
[10]; first compound 1 µM
  relative viability: 0.653
[11]; first compound 0.01 µM
  relative viability: 0.668
[11]; first compound 0.03162 µM
  relative viability: 0.825
[11]; first compound 0.1 µM
  relative viability: 0.656
[11]; first compound 0.3162 µM
  relative viability: 0.786
[11]; first compound 1 µM
  relative viability: 0.553
[12]; first compound 0.01 µM
  relative viability: 0.679
[12]; first compound 0.03162 µM
  relative viability: 0.617
[12]; first compound 0.1 µM
  relative viability: 0.537
[12]; first compound 0.3162 µM
  relative viability: 0.614
[12]; first compound 1 µM
  relative viability: 0.648
[13]; first compound 0.01 µM
  relative viability: 1.02
[13]; first compound 0.03162 µM
  relative viability: 0.911
[13]; first compound 0.1 µM
  relative viability: 0.907
[13]; first compound 0.3162 µM
  relative viability: 0.987
[13]; first compound 1 µM
  relative viability: 0.934
[14]; first compound 0.01 µM
  relative viability: 0.498
[14]; first compound 0.03162 µM
  relative viability: 0.567
[14]; first compound 0.1 µM
  relative viability: 0.473
[14]; first compound 0.3162 µM
  relative viability: 0.592
[14]; first compound 1 µM
  relative viability: 0.659
[15]; first compound 0.01 µM
  relative viability: 0.954
[15]; first compound 0.03162 µM
  relative viability: 0.858
[15]; first compound 0.1 µM
  relative viability: 0.74
[15]; first compound 0.3162 µM
  relative viability: 1.04
[15]; first compound 1 µM
  relative viability: 0.795
[16]; first compound 0.01 µM
  relative viability: 0.519
[16]; first compound 0.03162 µM
  relative viability: 0.631
[16]; first compound 0.1 µM
  relative viability: 0.535
[16]; first compound 0.3162 µM
  relative viability: 0.769
[16]; first compound 1 µM
  relative viability: 0.592
[17]; first compound 0.01 µM
  relative viability: 0.565
[17]; first compound 0.03162 µM
  relative viability: 0.572
[17]; first compound 0.1 µM
  relative viability: 0.311
[17]; first compound 0.3162 µM
  relative viability: 0.69
[17]; first compound 1 µM
  relative viability: 0.545
[18]; first compound 0.01 µM
  relative viability: 0.68
[18]; first compound 0.03162 µM
  relative viability: 0.754
[18]; first compound 0.1 µM
  relative viability: 0.728
[18]; first compound 0.3162 µM
  relative viability: 0.779
[18]; first compound 1 µM
  relative viability: 0.702
[19]; first compound 0.01 µM
  relative viability: 0.483
[19]; first compound 0.03162 µM
  relative viability: 0.436
[19]; first compound 0.1 µM
  relative viability: 0.557
[19]; first compound 0.3162 µM
  relative viability: 0.523
[19]; first compound 1 µM
  relative viability: 0.501
[20]; first compound 0.01 µM
  relative viability: 0.24
[20]; first compound 0.03162 µM
  relative viability: 0.361
[20]; first compound 0.1 µM
  relative viability: 0.181
[20]; first compound 0.3162 µM
  relative viability: 0.219
[20]; first compound 1 µM
  relative viability: 0.212
[21]; first compound 0.01 µM
  relative viability: 0.549
[21]; first compound 0.03162 µM
  relative viability: 0.638
[21]; first compound 0.1 µM
  relative viability: 0.554
[21]; first compound 0.3162 µM
  relative viability: 0.585
[21]; first compound 1 µM
  relative viability: 0.564
[22]; first compound 0.01 µM
  relative viability: 0.907
[22]; first compound 0.03162 µM
  relative viability: 0.848
[22]; first compound 0.1 µM
  relative viability: 0.913
[22]; first compound 0.3162 µM
  relative viability: 0.944
[22]; first compound 1 µM
  relative viability: 0.935
